# Laboratory results published in patent publication US20250304596A1, “PYRAZINE DERIVATIVES AND USES THEREOF” (FOGHORN THERAPEUTICS INC., priority 2022, published 2025).
# Tests used:
# HiBit-BRM fusion protein = biological target: T1, HiBit-BRM fusion protein (Homo sapiens, UniProt P51531); test: HiBiT-BRM cell-based degradation assay (Nano-Glo HiBiT Lytic Detection, 24 h); conditions: stable HeLa cell line expressing HiBiT-BRM; for DC50: read-out: BRM HiBit Degradation IC50
# T1 construct: expressed in transfected cells
# T1 sequence (P51531 whole entry, the tested form may be a part): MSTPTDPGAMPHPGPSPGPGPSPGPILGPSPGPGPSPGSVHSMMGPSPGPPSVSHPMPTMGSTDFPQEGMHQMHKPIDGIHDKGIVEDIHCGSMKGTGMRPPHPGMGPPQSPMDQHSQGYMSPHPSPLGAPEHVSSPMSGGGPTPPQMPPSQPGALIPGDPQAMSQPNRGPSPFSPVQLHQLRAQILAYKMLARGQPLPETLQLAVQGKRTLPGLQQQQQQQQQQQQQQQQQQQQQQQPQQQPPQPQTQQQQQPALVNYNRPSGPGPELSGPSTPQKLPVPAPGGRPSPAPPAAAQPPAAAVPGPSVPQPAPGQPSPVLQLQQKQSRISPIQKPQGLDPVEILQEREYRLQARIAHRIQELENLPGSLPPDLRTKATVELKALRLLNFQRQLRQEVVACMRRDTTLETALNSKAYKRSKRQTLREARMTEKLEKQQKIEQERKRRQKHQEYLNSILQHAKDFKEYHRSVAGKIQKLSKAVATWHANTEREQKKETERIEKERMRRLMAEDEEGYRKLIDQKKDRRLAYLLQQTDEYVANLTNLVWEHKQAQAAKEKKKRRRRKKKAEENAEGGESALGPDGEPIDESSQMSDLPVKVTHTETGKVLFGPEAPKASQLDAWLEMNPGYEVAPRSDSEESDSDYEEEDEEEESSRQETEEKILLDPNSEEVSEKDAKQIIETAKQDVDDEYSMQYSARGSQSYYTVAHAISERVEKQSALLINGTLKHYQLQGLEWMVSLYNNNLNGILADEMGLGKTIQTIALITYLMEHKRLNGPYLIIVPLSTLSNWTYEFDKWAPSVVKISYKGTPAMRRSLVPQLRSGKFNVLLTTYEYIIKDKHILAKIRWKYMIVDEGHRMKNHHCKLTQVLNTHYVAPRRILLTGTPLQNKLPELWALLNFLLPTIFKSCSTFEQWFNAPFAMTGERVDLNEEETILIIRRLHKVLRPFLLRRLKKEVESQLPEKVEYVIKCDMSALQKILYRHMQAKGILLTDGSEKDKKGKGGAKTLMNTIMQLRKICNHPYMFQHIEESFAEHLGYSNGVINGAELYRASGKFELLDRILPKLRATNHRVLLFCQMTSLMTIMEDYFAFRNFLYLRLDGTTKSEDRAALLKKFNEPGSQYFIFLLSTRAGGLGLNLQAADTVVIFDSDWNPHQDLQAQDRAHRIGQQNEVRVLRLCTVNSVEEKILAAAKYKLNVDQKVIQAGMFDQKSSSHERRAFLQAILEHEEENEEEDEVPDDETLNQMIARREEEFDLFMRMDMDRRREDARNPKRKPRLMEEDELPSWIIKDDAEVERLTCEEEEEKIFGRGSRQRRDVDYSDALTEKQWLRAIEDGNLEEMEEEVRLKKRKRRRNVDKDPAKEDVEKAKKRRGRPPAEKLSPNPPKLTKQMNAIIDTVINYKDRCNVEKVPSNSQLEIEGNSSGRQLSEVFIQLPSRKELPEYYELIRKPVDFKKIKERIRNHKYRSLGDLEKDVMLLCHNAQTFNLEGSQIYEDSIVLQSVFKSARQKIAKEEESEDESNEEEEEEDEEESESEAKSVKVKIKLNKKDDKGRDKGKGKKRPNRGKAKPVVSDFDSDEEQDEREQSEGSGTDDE
# Summary of the method: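 A stable HeLa line expressing HiBiT-BRM was treated for 24 h with compound in a 10-point, 3-fold series (30 μM final top dose). Remaining HiBiT-BRM was read by lytic LgBiT complementation luminescence. % degradation was normalised to DMSO (high control) and 2 μM reference BRM/BRG1 degrader (low control).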
# [1] = biological target: T2, HiBit-BRG1 fusion protein (Homo sapiens, UniProt P51532); test: HiBiT-BRG1 cell-based degradation assay (Nano-Glo HiBiT Lytic Detection, 24 h); conditions: stable HeLa cell line expressing HiBit-BRG1 and LgBit; for Dmax: read-out: BRG1 HiBit Degradation Maximum (%); for DC50: read-out: BRMG1 HiBit Degradation IC50
# T2 construct: expressed in transfected cells
# T2 sequence (P51532 whole entry, the tested form may be a part): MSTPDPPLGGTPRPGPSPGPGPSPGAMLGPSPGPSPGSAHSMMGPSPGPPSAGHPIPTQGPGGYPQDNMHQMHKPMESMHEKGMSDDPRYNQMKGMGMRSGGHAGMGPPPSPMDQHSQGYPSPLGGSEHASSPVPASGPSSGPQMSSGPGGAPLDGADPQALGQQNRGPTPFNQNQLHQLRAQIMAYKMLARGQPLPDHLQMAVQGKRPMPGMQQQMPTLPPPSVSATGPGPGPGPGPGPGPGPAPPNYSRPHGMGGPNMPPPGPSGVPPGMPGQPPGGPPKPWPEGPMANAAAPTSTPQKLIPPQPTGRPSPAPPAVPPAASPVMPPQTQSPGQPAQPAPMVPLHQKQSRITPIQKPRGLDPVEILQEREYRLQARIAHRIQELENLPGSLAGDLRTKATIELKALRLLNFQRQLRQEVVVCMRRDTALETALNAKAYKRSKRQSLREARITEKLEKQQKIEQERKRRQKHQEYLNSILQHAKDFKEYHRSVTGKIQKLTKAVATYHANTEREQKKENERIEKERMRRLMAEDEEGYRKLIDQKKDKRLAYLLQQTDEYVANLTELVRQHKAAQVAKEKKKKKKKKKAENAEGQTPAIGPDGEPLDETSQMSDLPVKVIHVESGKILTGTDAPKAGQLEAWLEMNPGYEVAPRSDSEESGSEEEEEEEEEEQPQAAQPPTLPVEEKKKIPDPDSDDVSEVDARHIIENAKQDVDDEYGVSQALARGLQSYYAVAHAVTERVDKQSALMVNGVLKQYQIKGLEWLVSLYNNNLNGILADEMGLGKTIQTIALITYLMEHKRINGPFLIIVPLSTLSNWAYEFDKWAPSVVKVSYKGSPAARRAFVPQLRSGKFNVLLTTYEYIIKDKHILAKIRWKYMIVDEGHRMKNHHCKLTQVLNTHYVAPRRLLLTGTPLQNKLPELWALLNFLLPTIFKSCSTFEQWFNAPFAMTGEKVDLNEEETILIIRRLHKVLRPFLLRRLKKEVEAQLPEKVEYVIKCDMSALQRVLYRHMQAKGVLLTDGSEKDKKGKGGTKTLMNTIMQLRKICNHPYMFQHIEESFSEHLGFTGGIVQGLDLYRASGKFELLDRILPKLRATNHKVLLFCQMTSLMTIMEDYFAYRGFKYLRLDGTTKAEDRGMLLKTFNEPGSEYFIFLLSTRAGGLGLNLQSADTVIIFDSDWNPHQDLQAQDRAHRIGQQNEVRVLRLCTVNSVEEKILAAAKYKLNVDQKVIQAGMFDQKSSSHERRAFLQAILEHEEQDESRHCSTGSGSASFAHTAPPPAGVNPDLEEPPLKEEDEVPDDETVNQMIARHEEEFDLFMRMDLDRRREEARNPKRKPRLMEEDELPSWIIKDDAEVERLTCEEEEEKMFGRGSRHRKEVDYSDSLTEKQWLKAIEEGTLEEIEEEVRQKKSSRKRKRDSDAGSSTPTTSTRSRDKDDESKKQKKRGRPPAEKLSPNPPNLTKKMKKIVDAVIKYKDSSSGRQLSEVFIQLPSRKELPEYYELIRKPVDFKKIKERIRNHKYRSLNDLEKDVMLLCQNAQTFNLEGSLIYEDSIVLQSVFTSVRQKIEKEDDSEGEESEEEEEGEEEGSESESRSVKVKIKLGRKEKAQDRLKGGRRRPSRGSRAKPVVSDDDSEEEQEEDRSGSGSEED
# Summary of the method: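 HeLa cells stably expressing HiBit-BRG1 and LgBit, treated 24 h with 3-fold dilutions (10 points, duplicate, 30 μM final top dose). Luminescence read after Nano-Glo HiBiT lytic reagent; % degradation scaled between DMSO (high) and 2 μM reference BRM/BRG1 degrader (low control).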
DC50 (HiBit-BRM fusion protein),Dmax [1],DC50 [1],SMILES,BRM HiBit Degradation Maximum (%) (HiBit-BRM fusion protein)
< 10 nM,< 50%,> 1000 nM,"Cc1ncsc1-c1ccc([C@H](C)NC(=O)[C@@H]2C[C@@H](O)CN2C(=O)[C@@H](c2cc(-c3cnc(N4CCC(c5sc6nnc(-c7ccccc7O)cc6c5C)CC4)cn3)no2)C(C)C)cc1 [Compound 28, (2S,4R)-4-hydroxy-1-((R)-2-(3-(5-(4-(3-(2-hydroxyphenyl)-5-methylthieno[2,3-c]pyridazin-6-yl)piperidin-1-yl)pyrazin-2-yl)isoxazol-5-yl)-3-methylbutanoyl)-N-((S)-1-(4-(4-methylthiazol-5-yl)phenyl)ethyl)pyrrolidine-2-carboxamide]",A (“A” indicates maximum degradation ≥75%)
> 1000 nM,< 50%,> 1000 nM,"Cc1ncsc1-c1ccc([C@H](C)NC(=O)[C@@H]2C[C@@H](O)CN2C(=O)C(c2cc(Oc3nccc(N4CCC(c5sc6nnc(-c7ccccc7O)cc6c5C)CC4)n3)no2)C(C)C)cc1 (single isomer, unassigned) [Compound 61, (2S,4R)-4-hydroxy-1-[(2R*)-2-{3-[(4-{4-[3-(2-hydroxyphenyl)-5-methylthieno[2,3-c]pyridazin-6-yl]piperidin-1-yl}pyrimidin-2-yl)oxy]-1,2-oxazol-5-yl}-3-methylbutanoyl]-N-[(1S)-1-[4-(4-methyl-1,3-thiazol-5-yl)phenyl]ethyl]pyrrolidine-2-carboxamide]",C (“C” indicates maximum degradation <50%)
< 10 nM,> 50%,> 10 nM,"Cc1ncsc1-c1ccc([C@H](C)NC(=O)[C@@H]2C[C@@H](O)CN2C(=O)[C@@H](c2cc(N3C[C@@H]4[C@H](C3)[C@H]4c3sc4nnc(-c5ccccc5O)cc4c3C)no2)C(C)C)cc1 [Compound 16, (2S,4R)-4-hydroxy-1-((R)-2-(3-((1R,5S,6R)-6-(3-(2-hydroxyphenyl)-5-methylthieno[2,3-c]pyridazin-6-yl)-3-azabicyclo[3.1.0]hexan-3-yl)isoxazol-5-yl)-3-methylbutanoyl)-N-((S)-1-(4-(4-methylthiazol-5-yl)phenyl)ethyl)pyrrolidine-2-carboxamide]",A (“A” indicates maximum degradation ≥75%)
< 10 nM,< 50%,> 1000 nM,"Cc1ncsc1-c1ccc([C@H](C)NC(=O)[C@@H]2C[C@@H](O)CN2C(=O)[C@@H](c2cc(-c3cnc(N4CC[C@@H](c5sc6nnc(-c7ccccc7O)cc6c5C)C[C@H]4C)nc3)no2)C(C)C)cc1 [Compound 30, (2S,4R)-4-hydroxy-1-((R)-2-(3-(2-((2R,4R)-4-(3-(2-hydroxyphenyl)-5-methylthieno[2,3-c]pyridazin-6-yl)-2-methylpiperidin-1-yl)pyrimidin-5-yl)isoxazol-5-yl)-3-methylbutanoyl)-N-((S)-1-(4-(4-methylthiazol-5-yl)phenyl)ethyl)pyrrolidine-2-carboxamide]",A (“A” indicates maximum degradation ≥75%)
> 10 nM,< 50%,,"Cc1ncsc1-c1ccc([C@H](C)NC(=O)[C@@H]2C[C@@H](O)CN2C(=O)[C@@H](c2cc(-c3cnc(N4CC[C@@H](c5sc6nnc(-c7ccccc7O)cc6c5C5CC5)C4)nc3)no2)C(C)C)cc1 [Compound 75, (2S,4R)-1-((R)-2-(3-(2-((R)-3-(5-cyclopropyl-3-(2-hydroxyphenyl)thieno [2,3-c]pyridazin-6-yl)pyrrolidin-1-yl)pyrimidin-5-yl)isoxazol-5-yl)-3-methylbutanoyl)-4-hydroxy-N-((S)-1-(4-(4-methylthiazol-5-yl)phenyl)ethyl)pyrrolidine-2-carboxamide]",B (“B” indicates maximum degradation ≥50%)
< 10 nM,< 50%,> 1000 nM,"Cc1ncsc1-c1ccc([C@H](C)NC(=O)[C@@H]2C[C@@H](O)CN2C(=O)[C@@H](c2cc(-c3cnc(N4CC[C@H](c5cc6cc(-c7ccccc7O)nnc6s5)C4)nc3)no2)C(C)C)cc1 [Compound 6, (2S,4R)-4-hydroxy-1-((R)-2-(3-(2-((S)-3-(3-(2-hydroxyphenyl)thieno[2,3-c]pyridazin-6-yl)pyrrolidin-1-yl)pyrimidin-5-yl)isoxazol-5-yl)-3-methylbutanoyl)-N-((S)-1-(4-(4-methylthiazol-5-yl)phenyl)ethyl)pyrrolidine-2-carboxamide]",A (“A” indicates maximum degradation ≥75%)
< 10 nM,> 50%,,"Cc1ncsc1-c1ccc([C@H](C)NC(=O)[C@@H]2C[C@@H](O)CN2C(=O)[C@@H](c2cc(N3CC4(C3)CN(c3sc5nnc(-c6ccccc6O)cc5c3C)C4)no2)C(C)C)cc1 [Compound 79, (2S,4R)-4-hydroxy-1-((R)-2-(3-(6-(3-(2-hydroxyphenyl)-5-methylthieno[2,3-c]pyridazin-6-yl)-2,6-diazaspiro[3.3]heptan-2-yl)isoxazol-5-yl)-3-methylbutanoyl)-N-((S)-1-(4-(4-methylthiazol-5-yl)phenyl)ethyl)pyrrolidine-2-carboxamide]",A (“A” indicates maximum degradation ≥75%)
< 10 nM,< 50%,,"Cc1ncsc1-c1ccc([C@H](C)NC(=O)[C@@H]2C[C@@H](O)CN2C(=O)[C@@H](c2cc(N3CC[C@@H](c4cc5nnc(-c6ccccc6O)cc5s4)C3)no2)C(C)C)cc1 [Compound 72, (2S,4R)-4-hydroxy-1-((R)-2-(3-((R)-3-(3-(2-hydroxyphenyl)thieno[3,2-c]pyridazin-6-yl)pyrrolidin-1-yl)isoxazol-5-yl)-3-methylbutanoyl)-N-((S)-1-(4-(4-methylthiazol-5-yl)phenyl)ethyl)pyrrolidine-2-carboxamide]",A (“A” indicates maximum degradation ≥75%)
> 10 nM,< 50%,> 1000 nM,"Cc1ncsc1-c1ccc([C@H](C)NC(=O)[C@@H]2C[C@@H](O)CN2C(=O)[C@@H](c2cc(-c3ncc(N4CCC(c5sc6nnc(-c7ccccc7O)cc6c5C)CC4)cn3)no2)C(C)C)cc1 [Compound 36, (2S,4R)-4-hydroxy-1-((R)-2-(3-(5-(4-(3-(2-hydroxyphenyl)-5-methylthieno[2,3-c]pyridazin-6-yl)piperidin-1-yl)pyrimidin-2-yl)isoxazol-5-yl)-3-methylbutanoyl)-N-((S)-1-(4-(4-methylthiazol-5-yl)phenyl)ethyl)pyrrolidine-2-carboxamide]",A (“A” indicates maximum degradation ≥75%)
< 10 nM,< 50%,> 1000 nM,"Cc1ncsc1-c1ccc([C@H](C)NC(=O)[C@@H]2C[C@@H](O)CN2C(=O)[C@@H](c2cc(-c3ccc(N4CCC(c5sc6nnc(-c7ccccc7O)cc6c5C)CC4)cc3)no2)C(C)C)cc1 [Compound 26, (2S,4R)-4-hydroxy-1-((R)-2-(3-(4-(4-(3-(2-hydroxyphenyl)-5-methylthieno[2,3-c]pyridazin-6-yl)piperidin-1-yl)phenyl)isoxazol-5-yl)-3-methylbutanoyl)-N-((S)-1-(4-(4-methylthiazol-5-yl)phenyl)ethyl)pyrrolidine-2-carboxamide]",A (“A” indicates maximum degradation ≥75%)
> 10 nM,< 50%,> 1000 nM,"Cc1ncsc1-c1ccc([C@H](C)NC(=O)[C@@H]2C[C@@H](O)CN2C(=O)[C@@H](c2cc(N3CCC4(CC3)CC(c3sc5nnc(-c6ccccc6O)cc5c3C)C4)no2)C(C)C)cc1 [Compound 45, (2S,4R)-4-hydroxy-1-((R)-2-(3-(2-(3-(2-hydroxyphenyl)-5-methylthieno[2,3-c]pyridazin-6-yl)-7-azaspiro[3.5]nonan-7-yl)isoxazol-5-yl)-3-methylbutanoyl)-N-((S)-1-(4-(4-methylthiazol-5-yl)phenyl)ethyl)pyrrolidine-2-carboxamide]",A (“A” indicates maximum degradation ≥75%)
> 10 nM,< 50%,,"Cc1ncsc1-c1ccc([C@H](C)NC(=O)[C@@H]2C[C@@H](O)CN2C(=O)[C@@H](c2cc(-c3ccnc(N4CC[C@@H](c5cc6nnc(-c7ccccc7O)cc6s5)C4)n3)no2)C(C)C)cc1 [Compound 83, (2S,4R)-4-hydroxy-1-((R)-2-(3-(2-((R)-3-(3-(2-hydroxyphenyl)thieno[3,2-c]pyridazin-6-yl)pyrrolidin-1-yl)pyrimidin-4-yl)isoxazol-5-yl)-3-methylbutanoyl)-N-((S)-1-(4-(4-methylthiazol-5-yl)phenyl)ethyl)pyrrolidine-2-carboxamide]",A (“A” indicates maximum degradation ≥75%)
< 10 nM,> 75%,> 10 nM,"Cc1ncsc1-c1ccc([C@H](C)NC(=O)[C@@H]2C[C@@H](O)CN2C(=O)[C@@H](c2cc(N3CC4(CC(c5cc6cc(-c7ccccc7O)nnc6s5)C4)C3)no2)C(C)C)cc1 (single isomer, unassigned) [Compound 1]",A (“A” indicates maximum degradation ≥75%)
